Like-named read-outs stand apart in the source and are kept apart here.
How the values were obtained:
human RORγ = target: T1, human RORγ (Homo sapiens, UniProt P51449); test: In vitro assay of inhibitory effect against RORγ transcriptional activity (GAL4-hRORγ LBD luciferase reporter gene assay in CHO cells); assay type: cell-based; conditions: for hRORγ luciferase activity, %-of-control: vehicle-control 0.2% DMSO alone = 100%
T1 construct: human RORγ, from Ser253 to Lys518; expressed in transfected cells; host or cells: CHO cells (Chinese hamster ovary), transient co-transfection with pG5-Luc
T1 sequence (P51449 253-518): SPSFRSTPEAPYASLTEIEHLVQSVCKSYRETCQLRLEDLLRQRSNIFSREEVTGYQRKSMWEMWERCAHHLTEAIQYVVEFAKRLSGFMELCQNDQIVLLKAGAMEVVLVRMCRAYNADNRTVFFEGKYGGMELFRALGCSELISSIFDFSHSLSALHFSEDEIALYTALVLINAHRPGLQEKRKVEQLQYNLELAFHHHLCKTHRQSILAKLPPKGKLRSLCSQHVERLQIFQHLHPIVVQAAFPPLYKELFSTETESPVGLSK
Summary of the method: (§1)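 Luciferase signal, expressed relative to 0.2% DMSO vehicle as 100%, was the read-out after a 2-day compound exposure of CHO cells co-expressing a GAL4-RORγ LBD fusion and a GAL4-responsive reporter. EC50 values came from curve fitting, omitting points showing cytotoxicity.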

mouse RORγ = target: T2, mouse RORγ (Mus musculus, UniProt P51450); test: In vitro assay of inhibitory effect against RORγ transcriptional activity (GAL4-mRORγ LBD luciferase reporter gene assay in CHO cells); assay type: cell-based; conditions: for mRORγ luciferase activity, %-of-control: vehicle-control 0.2% DMSO alone = 100%
T2 construct: mouse RORγ, from Ile251 to Lys516; expressed in transfected cells; host or cells: CHO cells (Chinese hamster ovary), transient co-transfection with pG5-Luc
T2 sequence (P51450 251-516): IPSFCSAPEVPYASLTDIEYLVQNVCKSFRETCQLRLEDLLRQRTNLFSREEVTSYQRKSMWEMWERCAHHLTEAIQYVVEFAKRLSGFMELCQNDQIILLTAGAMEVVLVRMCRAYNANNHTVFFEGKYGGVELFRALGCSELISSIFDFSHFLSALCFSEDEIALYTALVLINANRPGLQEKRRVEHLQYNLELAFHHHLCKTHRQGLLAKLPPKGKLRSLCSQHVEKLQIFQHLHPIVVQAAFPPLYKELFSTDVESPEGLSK
Summary of the method: as §1

[1] = GAL4-hRORγ LBD luciferase reporter, CHO cells, read-out: LUC EC50 hRORγ
[2] = GAL4-mRORγ LBD luciferase reporter, CHO cells, read-out: LUC EC50 mRORγ
[3] = GAL4-hRORγ LBD / pG5-Luc in CHO cells, 2 days incubation
[4] = GAL4-mRORγ LBD / pG5-Luc in CHO cells, 2 days incubation
[5] = value in parentheses beside the > EC50 bound
[6] = value in parentheses beside the EC50 bound

EC50 (human RORγ; [1]) [nM]	EC50 (mouse RORγ; [2]) [nM]	EC50 (human RORγ; [3]) [nM]	EC50 (mouse RORγ; [4]) [nM]	SMILES	further results
169	100	–	–	CC(C)CSc1ccc([C@]2(C)NC(=O)N(CCC(=O)O)C=C2C(C)C)cc1Cl [Example 214]	–
–	–	5160	4290	CC(C)(C)CCc1ccc([C@@]2(C)NC(=O)N(CCCC(=O)O)C=C2C2CC2)cc1Cl [Example 56]	–
22	29	–	–	Cc1cc(C(=O)O)ccc1N1C=C(C(C)C)[C@](C)(c2ccc(CCC(C)(C)C)c(Cl)c2)NC1=O [Example 220]	–
–	–	31	22	CC(C)(C)CCc1ccc([C@]2(C)NC(=O)N(CCCC(=O)O)C=C2C2CC2)cc1Cl [Example 57]	–
–	–	> 8000	> 8000	CC(C)C1=CN([C@H]2C[C@H](C(=O)O)C2)C(=O)N[C@]1(C)c1ccc(CCC(C)(C)C)c(Cl)c1 [Example 41]	hRORγ luciferase activity, %-of-control (human RORγ; [5]): (59%); mRORγ luciferase activity, %-of-control (mouse RORγ; [5]): (61%)
13	13	–	–	CC(C)C1=CN(C2CCC(C(=O)O)C2)C(=O)N[C@@]1(C)c1ccc(CCC(C)(C)C)c(Cl)c1 (single isomer, unassigned) [Example 278]	–
–	–	30	22	CC(C)C1=CN(CCC(=O)O)C(=O)N[C@@]1(C)c1cc(F)c(/C=C/C(C)(C)C)c(Cl)c1 [Example 189]	–
–	–	206	153	CC(C)C1=CN([C@H]2C[C@H](C(=O)O)C2)C(=O)NC1(C)c1ccc(OCC(C)(C)C)c(Cl)c1 (mixture of isomers) [Example 17]	–
–	–	1440	675	CC(C)(C)COc1ccc(C2NC(=O)NC=C2C(C)(C)CC(=O)O)cc1Cl (racemic) [Example 4]	–
–	–	154	47	CC(C)C1=CN(CCC(=O)O)C(=O)N[C@@]1(C)c1cc(F)c(OCc2ccccc2)c(Cl)c1 [Example 161]	–
–	–	986	1100	CC(C)C1=CN(CCCC(C)(C)C(=O)O)C(=O)N[C@]1(C)c1ccc(CCC(C)(C)C)c(Cl)c1 [Example 74]	–
–	–	10	14	CC(C)C1=CN(C[C@H]2C[C@H](C(=O)O)C2)C(=O)N[C@@]1(C)c1ccc(CCC(C)(C)C)c(Cl)c1 [Example 154, 3-{(S)-4-[3-chloro-4-(3,3-dimethyl-butyl)-phenyl]-5-isopropyl-4-methyl-2-oxo-3,4-dihydro-2H-pyrimidin-1-ylmethyl}-cyclobutanecarboxylic acid]	–
1080	138	–	–	CC(C)C1=CN(CCC(=O)O)C(=O)N[C@@]1(C)c1ccc(CC2CCC2)c(Cl)c1 [Example 291]	–
1220	543	–	–	CC(C)C1=CN(C2CCCC2C(=O)O)C(=O)N[C@@]1(C)c1ccc(CCC(C)(C)C)c(Cl)c1 (single isomer, unassigned) [Example 243]	–
81	117	–	–	COC[C@H]1C[C@@H](C2=CN(CCC(=O)O)C(=O)N[C@@]2(C)c2ccc(CCC(C)(C)C)c(Cl)c2)C1 [Example 206]	–
17	36	–	–	CC(C)C1=CN(C23CCC(C(=O)O)(C2)C3)C(=O)N[C@@]1(C)c1ccc(CCC(C)(C)C)c(Cl)c1 [Example 272]	–
–	–	1160	616	CC(C)Cc1ccc(C2(C)NC(=O)N(CCCC(=O)O)C=C2C(C)C)cc1 (racemic) [Example 106]	–
–	–	13	17	CC(C)C1=CN(CCC2(C(=O)O)CC2)C(=O)N[C@@]1(C)c1ccc(CCC(C)(C)C)c(Cl)c1 [Example 72]	–
964	534	–	–	CC(C)C1=CN([C@@H]2CCC[C@@H]2C(=O)O)C(=O)N[C@@]1(C)c1ccc(CCC(C)(C)C)c(Cl)c1 [Example 234]	–

EC50 (human RORγ; [1]) [nM]	EC50 (mouse RORγ; [2]) [nM]	EC50 (human RORγ; [3]) [nM]	EC50 (mouse RORγ; [4]) [nM]	SMILES	further results
25	75	–	–	COCCN1C=C(c2cccc(C(=O)O)c2)[C@](C)(c2ccc(CCC(C)(C)C)c(Cl)c2)NC1=O [Example 273]	–
–	–	1100	764	CC(C)C1=CN(CCCCC(=O)O)C(=O)N[C@]1(C)c1ccc(CCC(C)(C)C)c(Cl)c1 [Example 47]	–
> 20000	> 20000	–	–	CC(C)CCS(=O)(=O)c1ccc([C@]2(C)NC(=O)N(CCC(=O)O)C=C2C(C)C)cc1Cl [Example 216]	hRORγ luciferase activity, %-of-control (human RORγ; [6]): (86%); mRORγ luciferase activity, %-of-control (mouse RORγ; [6]): (76%)
–	–	> 8000	> 8000	CC(C)(C)COc1ccc(C2NC(=O)N(CCCC(=O)O)C=C2C(C)(C)C)cc1Cl (single isomer, unassigned) [Example 6]	hRORγ luciferase activity, %-of-control (human RORγ; [5]): (76%); mRORγ luciferase activity, %-of-control (mouse RORγ; [5]): (75%)
28	47	–	–	COC1CC(C2=CN(c3ccc(C(=O)O)cc3)C(=O)N[C@@]2(C)c2ccc(CCC(C)(C)C)c(Cl)c2)C1 (single isomer, unassigned) [Example 276]	–
> 20000	> 20000	–	–	CC(C)C1=CN(CCC(=O)O)C(=O)N[C@@]1(C)c1ccc(S(=O)(=O)C2CCCC2)c(Cl)c1 [Example 227]	hRORγ luciferase activity, %-of-control (human RORγ; [6]): (89%); mRORγ luciferase activity, %-of-control (mouse RORγ; [6]): (87%)
25	24	–	–	COc1cc(C(=O)O)ccc1N1C=C(C(C)C)[C@](C)(c2ccc(CCC(C)(C)C)c(Cl)c2)NC1=O [Example 221]	–
–	–	6770	> 8000	CC(C)C1=CN(CCC(=O)O)C(=O)N[C@]1(C)c1ccc(CCC(C)(C)C)c(Cl)c1 [Example 86, 3-{(R)-4-[3-Chloro-4-(3,3-dimethyl-butyl)-phenyl]-5-isopropyl-4-methyl-2-oxo-3,4-dihydro-2H-pyrimidin-1-yl}-propionic Acid]	mRORγ luciferase activity, %-of-control (mouse RORγ; [5]): (51%)
–	–	36	49	CC(C)C1=CN([C@H]2CC[C@H](C(=O)O)CC2)C(=O)NC1(C)c1ccc(CCC(C)(C)C)c(Cl)c1 (mixture of isomers) [Example 29]	–
9	17	–	–	CC(C)C1=CN(c2ccc(C(=O)O)cc2)C(=O)N[C@@]1(C)c1ccc(CCC(C)(C)C(F)(F)F)c(Cl)c1 [Example 196]	–
–	–	28	15	CC(C)C1=CN(CCC(=O)O)C(=O)N[C@@]1(C)c1ccc(CCC2CCC2)c(Cl)c1 [Example 122]	–
–	–	12	20	CC(C)(C)CCc1ccc([C@]2(C)NC(=O)N(CCCC(=O)O)C=C2C2CCC2)cc1Cl [Example 59]	–
–	–	> 8000	> 8000	CC(C)C1=CN(CCC(=O)O)C(=O)N[C@]1(C)c1ccc(CCC2(C)CC2)c(Cl)c1 [Example 131]	hRORγ luciferase activity, %-of-control (human RORγ; [5]): (77%); mRORγ luciferase activity, %-of-control (mouse RORγ; [5]): (81%)
225	76	–	–	CC(C)N1C=C(CCC(=O)O)[C@](C)(c2ccc(CCC(C)(C)C)c(Cl)c2)NC1=O [Example 230]	–
–	–	364	217	CC(C)C1=CN(CCCC(=O)O)C(=O)NC1(C)c1ccc(CCC(C)(C)C)cc1 (racemic) [Example 26]	–
–	–	172	275	CC(C)C1=CN([C@H]2CC(=O)N(CC(=O)O)C2)C(=O)N[C@@]1(C)c1ccc(CCC(C)(C)C)c(Cl)c1 [Example 162]	–
–	–	> 512	37	CC(C)C1=CN(CCC(=O)O)C(=O)N[C@@]1(C)c1ccc(CCc2ccccc2)c(Cl)c1 [Example 144]	hRORγ luciferase activity, %-of-control (human RORγ; [5]): (60%)
–	–	17	29	CC(C)(C)CCc1ccc(C2(C)NC(=O)N(CCCC(=O)O)C=C2C(C)(C)C)cc1Cl (racemic) [Example 22]	–
463	259	–	–	CC(C)C1=CN(CCC(=O)O)C(=O)N[C@@]1(C)c1ccc(CC2CCOCC2)c(Cl)c1 [Example 290]	–
